Laboratory results from PubChem BioAssay (NCI).
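Tested at 5 concentrations; 48 h exposure; 96-well plates; endpoints linearly interpolated, else capped at highest concentration. The concentration for 50% growth inhibition is given as GI50. Definition used: TGI = concentration required for complete inhibition of growth.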

Legend:
Assay in all cases: NCI anticancer screen, dose series, 48 h
786-0 renal = tested on: 786-0 renal
A498 renal = tested on: A498 renal
A549 NSCLC = tested on: A549 NSCLC
ACHN renal = tested on: ACHN renal
BT-549 breast = tested on: BT-549 breast
CAKI-1 renal = tested on: CAKI-1 renal
CCRF-CEM leukemia = tested on: CCRF-CEM leukemia
COLO 205 colon = tested on: COLO 205 colon
DU-145 prostate = tested on: DU-145 prostate
EKVX NSCLC = tested on: EKVX NSCLC
HCC-2998 colon = tested on: HCC-2998 colon
HCT-116 colon = tested on: HCT-116 colon
HCT-15 colon = tested on: HCT-15 colon
HL-60(TB) leukemia = tested on: HL-60(TB) leukemia
HOP-62 NSCLC = tested on: HOP-62 NSCLC
HOP-92 NSCLC = tested on: HOP-92 NSCLC
HS 578T breast = tested on: HS 578T breast
HT29 colon = tested on: HT29 colon
K-562 leukemia = tested on: K-562 leukemia
KM12 colon = tested on: KM12 colon
LOX IMVI melanoma = tested on: LOX IMVI melanoma
M14 melanoma = tested on: M14 melanoma
MALME-3M melanoma = tested on: MALME-3M melanoma
MCF7 breast = tested on: MCF7 breast
MDA-MB-231 breast = tested on: MDA-MB-231 breast
MDA-MB-435 = tested on: MDA-MB-435
MOLT-4 leukemia = tested on: MOLT-4 leukemia
NCI-H226 lung = tested on: NCI-H226 lung
NCI-H23 lung = tested on: NCI-H23 lung
NCI-H460 lung = tested on: NCI-H460 lung
NCI-H522 lung = tested on: NCI-H522 lung
NCI/ADR-RES ovarian = tested on: NCI/ADR-RES ovarian
OVCAR-3 ovarian = tested on: OVCAR-3 ovarian
OVCAR-4 ovarian = tested on: OVCAR-4 ovarian
OVCAR-5 ovarian = tested on: OVCAR-5 ovarian
OVCAR-8 ovarian = tested on: OVCAR-8 ovarian
PC-3 prostate = tested on: PC-3 prostate
RPMI-8226 leukemia = tested on: RPMI-8226 leukemia
RXF 393 renal = tested on: RXF 393 renal
SF-268 CNS = tested on: SF-268 CNS
SF-295 CNS = tested on: SF-295 CNS
SF-539 CNS = tested on: SF-539 CNS
SK-MEL-2 melanoma = tested on: SK-MEL-2 melanoma
SK-MEL-28 melanoma = tested on: SK-MEL-28 melanoma
SK-MEL-5 melanoma = tested on: SK-MEL-5 melanoma
SK-OV-3 ovarian = tested on: SK-OV-3 ovarian
SN12C renal = tested on: SN12C renal
SNB-19 CNS = tested on: SNB-19 CNS
SNB-75 CNS = tested on: SNB-75 CNS
SR leukemia = tested on: SR leukemia
SW-620 colon = tested on: SW-620 colon
T-47D breast = tested on: T-47D breast
TK-10 renal = tested on: TK-10 renal
U251 CNS = tested on: U251 CNS
UACC-257 melanoma = tested on: UACC-257 melanoma
UACC-62 melanoma = tested on: UACC-62 melanoma
UO-31 renal = tested on: UO-31 renal
IGROV1 ovarian = tested on: IGROV1 ovarian

## COCCNc1ccc2c3c(cccc13)C(=O)N(CCN(C)C)C2=O
786-0 renal
  GI50: 9.13 µM
  TGI: > 25 µM
A498 renal
  GI50: 6.16 µM
  TGI: 21.5 µM
A549 NSCLC
  GI50: 6.35 µM
  TGI: > 25 µM
ACHN renal
  GI50: 4.64 µM
  TGI: > 25 µM
BT-549 breast
  GI50: 10.7 µM
  TGI: > 25 µM
CAKI-1 renal
  GI50: 4.49 µM
  TGI: 10.1 µM
CCRF-CEM leukemia
  GI50: 6.38 µM
  TGI: > 25 µM
COLO 205 colon
  GI50: 2.74 µM
  TGI: 12.5 µM
DU-145 prostate
  GI50: 9.41 µM
  TGI: > 25 µM
EKVX NSCLC
  GI50: 6.23 µM
  TGI: > 25 µM
HCC-2998 colon
  GI50: 10.1 µM
  TGI: > 25 µM
HCT-116 colon
  GI50: 6.65 µM
  TGI: > 25 µM
HCT-15 colon
  GI50: 6.84 µM
  TGI: > 25 µM
HL-60(TB) leukemia
  GI50: 6.78 µM
  TGI: 14.4 µM
HOP-62 NSCLC
  GI50: 7.55 µM
  TGI: > 25 µM
HOP-92 NSCLC
  GI50: 10.2 µM
  TGI: > 25 µM
HS 578T breast
  GI50: 9.38 µM
  TGI: > 25 µM
HT29 colon
  GI50: 7.66 µM
  TGI: > 25 µM
K-562 leukemia
  GI50: 4.66 µM
  TGI: 11.5 µM
KM12 colon
  GI50: 8.65 µM
  TGI: > 25 µM
LOX IMVI melanoma
  GI50: 7.06 µM
  TGI: > 25 µM
M14 melanoma
  GI50: 7.98 µM
  TGI: > 25 µM
MALME-3M melanoma
  GI50: 6.13 µM
  TGI: 21.1 µM
MCF7 breast
  GI50: 6.5 µM
  TGI: 23.4 µM
MDA-MB-231 breast
  GI50: 12.9 µM
  TGI: > 25 µM
MDA-MB-435
  GI50: 8.15 µM
  TGI: > 25 µM
MOLT-4 leukemia
  GI50: 4.98 µM
  TGI: 13 µM
NCI-H226 lung
  GI50: 5.01 µM
  TGI: 17 µM
NCI-H23 lung
  GI50: 8.04 µM
  TGI: > 25 µM
NCI-H460 lung
  GI50: 4.63 µM
  TGI: 11.4 µM
NCI-H522 lung
  GI50: 4.06 µM
  TGI: 12.4 µM
NCI/ADR-RES ovarian
  GI50: 8.98 µM
  TGI: > 25 µM
OVCAR-3 ovarian
  GI50: 8.65 µM
  TGI: > 25 µM
OVCAR-4 ovarian
  GI50: 11.8 µM
  TGI: > 25 µM
OVCAR-5 ovarian
  GI50: 9.41 µM
  TGI: > 25 µM
OVCAR-8 ovarian
  GI50: 6.85 µM
  TGI: > 25 µM
PC-3 prostate
  GI50: 9.76 µM
  TGI: > 25 µM
RPMI-8226 leukemia
  GI50: 5.27 µM
  TGI: 15 µM
RXF 393 renal
  GI50: 5.07 µM
  TGI: 16.9 µM
SF-268 CNS
  GI50: 8.95 µM
  TGI: > 25 µM
SF-295 CNS
  GI50: 6.31 µM
  TGI: 21.1 µM
SF-539 CNS
  GI50: 7.04 µM
  TGI: > 25 µM
SK-MEL-2 melanoma
  GI50: 8.24 µM
  TGI: > 25 µM
SK-MEL-28 melanoma
  GI50: 7.16 µM
  TGI: 23.1 µM
SK-MEL-5 melanoma
  GI50: 4.76 µM
  TGI: 13.1 µM
SK-OV-3 ovarian
  GI50: 4.28 µM
  TGI: > 25 µM
SN12C renal
  GI50: 7.23 µM
  TGI: > 25 µM
SNB-19 CNS
  GI50: 4.11 µM
  TGI: > 25 µM
SNB-75 CNS
  GI50: 15.9 µM
  TGI: > 25 µM
SR leukemia
  GI50: 3.67 µM
  TGI: 11.4 µM
SW-620 colon
  GI50: 6.69 µM
  TGI: > 25 µM
T-47D breast
  GI50: 4.87 µM
  TGI: 23.8 µM
TK-10 renal
  GI50: 4.2 µM
  TGI: 22.1 µM
U251 CNS
  GI50: 8.71 µM
  TGI: > 25 µM
UACC-257 melanoma
  GI50: 7.23 µM
  TGI: > 25 µM
UACC-62 melanoma
  GI50: 4.54 µM
  TGI: 14.4 µM
UO-31 renal
  GI50: 4.89 µM
  TGI: 19.5 µM

## N#Cc1c(N2CCOCC2)nc(=S)[nH]c1-c1ccccc1
786-0 renal
  GI50: 14.1 µM
  TGI: > 100 µM
A498 renal
  GI50: 3.66 µM
  TGI: 26.8 µM
A549 NSCLC
  GI50: 21.3 µM
  TGI: > 100 µM
ACHN renal
  GI50: 14.1 µM
  TGI: > 100 µM
BT-549 breast
  GI50: 8.78 µM
  TGI: > 100 µM
CAKI-1 renal
  GI50: 9.29 µM
  TGI: > 100 µM
CCRF-CEM leukemia
  GI50: 30.9 µM
  TGI: > 100 µM
COLO 205 colon
  GI50: 19 µM
  TGI: > 100 µM
DU-145 prostate
  GI50: 31 µM
  TGI: > 100 µM
EKVX NSCLC
  GI50: 20.2 µM
  TGI: > 100 µM
HCC-2998 colon
  GI50: 77.2 µM
  TGI: > 100 µM
HCT-116 colon
  GI50: 42.4 µM
  TGI: > 100 µM
HCT-15 colon
  GI50: 24.9 µM
  TGI: > 100 µM
HL-60(TB) leukemia
  GI50: 15.3 µM
  TGI: > 100 µM
HOP-62 NSCLC
  GI50: 7.93 µM
  TGI: 68.1 µM
HOP-92 NSCLC
  GI50: 3.94 µM
  TGI: > 100 µM
HS 578T breast
  GI50: 7.65 µM
  TGI: 60.7 µM
HT29 colon
  GI50: 33.5 µM
  TGI: > 100 µM
IGROV1 ovarian
  GI50: 3.15 µM
  TGI: > 100 µM
K-562 leukemia
  GI50: 52 µM
  TGI: > 100 µM
KM12 colon
  GI50: 35 µM
  TGI: > 100 µM
LOX IMVI melanoma
  GI50: 23.5 µM
  TGI: > 100 µM
M14 melanoma
  GI50: 19.9 µM
  TGI: > 100 µM
MALME-3M melanoma
  GI50: 5.19 µM
  TGI: 58.9 µM
MCF7 breast
  GI50: 4.89 µM
  TGI: > 100 µM
MDA-MB-231 breast
  GI50: 7.86 µM
  TGI: > 100 µM
MDA-MB-435
  GI50: 29.7 µM
  TGI: > 100 µM
MOLT-4 leukemia
  GI50: 10.7 µM
  TGI: > 100 µM
NCI-H226 lung
  GI50: 14.3 µM
  TGI: > 100 µM
NCI-H23 lung
  GI50: 34.5 µM
  TGI: > 100 µM
NCI-H460 lung
  GI50: 9.57 µM
  TGI: > 100 µM
NCI-H522 lung
  GI50: 13.8 µM
  TGI: > 100 µM
NCI/ADR-RES ovarian
  GI50: 53.4 µM
  TGI: > 100 µM
OVCAR-3 ovarian
  GI50: 16.9 µM
  TGI: > 100 µM
OVCAR-4 ovarian
  GI50: 65.7 µM
  TGI: > 100 µM
OVCAR-5 ovarian
  GI50: 18.3 µM
  TGI: > 100 µM
OVCAR-8 ovarian
  GI50: 39.2 µM
  TGI: > 100 µM
PC-3 prostate
  GI50: 2.1 µM
  TGI: 8.79 µM
RPMI-8226 leukemia
  GI50: 13.3 µM
  TGI: > 100 µM
RXF 393 renal
  GI50: 21 µM
  TGI: > 100 µM
SF-268 CNS
  GI50: 33.5 µM
  TGI: > 100 µM
SF-539 CNS
  GI50: 13.2 µM
  TGI: > 100 µM
SK-MEL-2 melanoma
  GI50: 4.5 µM
  TGI: > 100 µM
SK-MEL-28 melanoma
  GI50: 20.5 µM
  TGI: > 100 µM
SK-MEL-5 melanoma
  GI50: 9.36 µM
  TGI: > 100 µM
SK-OV-3 ovarian
  GI50: 8.48 µM
  TGI: 98.6 µM
SN12C renal
  GI50: 19 µM
  TGI: > 100 µM
SNB-19 CNS
  GI50: 89.9 µM
  TGI: > 100 µM
SNB-75 CNS
  GI50: 6.12 µM
  TGI: > 100 µM
SR leukemia
  GI50: 29 µM
  TGI: > 100 µM
SW-620 colon
  GI50: 74.2 µM
  TGI: > 100 µM
T-47D breast
  GI50: 4.15 µM
  TGI: > 100 µM
TK-10 renal
  GI50: 20.7 µM
  TGI: > 100 µM
U251 CNS
  GI50: 60.1 µM
  TGI: > 100 µM
UACC-257 melanoma
  GI50: 49.8 µM
  TGI: > 100 µM
UACC-62 melanoma
  GI50: 4.95 µM
  TGI: > 100 µM
UO-31 renal
  GI50: 4.57 µM
  TGI: > 100 µM
